# Measurements taken from patent US20110046217A1, “USE OF 2,2'-CYCLOLIGNANS FOR INDUCING, RESTORING OR STIMULATING THE PIGMENTATION OF THE SKIN, HAIR OR HAIRS” (priority 2007, published 2011).
# Values joined by “and” are separate entries in the source; they are usually repeats but may differ in a detail not shown here. Identical values can stand only once.
# How the values were obtained:
# B16 melanocytes [1] = assay: MTT test and morphological observations, viability of B16 melanocytes; format: cell-based; settings: for MTT (%): Table 2, plate 1; for % cell viability: Table 4; for MTT test, average / MTT test, single reading / viability (%): 72 h contact
# B16 melanocytes [2] = assay: Melanin assay, synthesis of melanin by B16 melanocytes; format: cell-based; settings: for melanin production in the melanocyte cultures: treated at non-toxic doses
# Method: The melanogenesis-stimulating effect of gomisin A was measured on B16 melanocyte cultures.
# For gomisin A, the following were determined: • after culturing for 10 days under standard conditions, in 24-well plates, in Promocell medium free of “phorbol myristate acetate” (PMA):
# the amount of melanin present in the cultures, by spectrophotometric measurement of the melanin produced, after alkaline extraction, relative to 100% of the control (the control corresponds to the test performed without test compound).
# The melanogenesis-stimulating effect of gomisin C was measured on B16 melanocyte cultures.
# For gomisin C, the following were determined: • after culturing for 10 days under standard conditions, in 24-well plates, in Promocell medium free of “phorbol myristate acetate” (PMA): […]
# [3] = test system: Caucasian primary melanocytes; assay: Melanin produced in normal human melanocytes; format: cell-based; settings: 30 μM, 4 days, in the presence of L-dopa (50 μM), vs control
# Method: The study was carried out on Caucasian primary melanocytes during culturing. The test and reference formulations were applied in the presence of L-dopa which is the substrate of tyrosinase (50 μM) (Sigma, D9628-5G) for 4 days, the culture medium having been renewed after 2 days. The product GPN000715 was applied at three different concentrations: 10 μM, 30 μM and 80 μM. An application of 100 nM of the reference element (MSH) was carried out, and also an application of 0.1 mM of arbutin. The untreated control cells (CTL) stayed in the culture medium.
# The melanocytes were seeded in 6-well plates at a cell density of +/−100 000 cells. One week after seeding the cells, the test and reference products were applied, in the presence of L-dopa. After 4 days of treatment, cell lysis was carried out using a solution of NaOH (1N) (Merck, 109956) over 24 hours, at 37° C. The cell lysates were then centrifuged for 10 minutes, then 120 μl of each lysate was transferred into a 96-well plate in order to read the absorbance at 450 nm. The melanin content of each sample was quantified by comparison with the absorbances from the standard curve made with synthetic melanin (Sigma, M8631-100MG), ranging from 0 to 100 μg/ml.
# FIG. 1 represents a quantification of the production of melanin by melanocytes, in a single layer, after 4 days of application in the presence of the test and reference elements. […]
# follicle (hair bulb) = assay: Pigmentation and survival of the hair follicle
# melanocyte = assay: Formation of a dense dendritic network in the melanocyte; format: cell-based
# keratinocytes = assay: Phagocytic activity of the keratinocytes; format: cell-based
compound,measurement,setting,value
"CC(C)Cn1c(=O)n(C)c(=O)c2[nH]cnc21 [IBMX, reference compound]",MTT (%),B16 melanocytes [1]; 200 μM,99%
same,% cell viability,B16 melanocytes [1]; 8 μM,96%
same,% cell viability,B16 melanocytes [1]; 40 μM,94%
same,% cell viability,B16 melanocytes [1]; 200 μM,99%
same,Melanin,"B16 melanocytes [2]; Table 2, plate 1, 200 μM",173.77 µg/mL
same,Melanin % Control,"B16 melanocytes [2]; Table 2, plate 1, 200 μM",1261%
same,Melanin,"B16 melanocytes [2]; Table 4, 8 μM",18.88 µg/mL
same,Melanin % Control,"B16 melanocytes [2]; Table 4, 8 μM",117%
same,Melanin,"B16 melanocytes [2]; Table 4, 40 μM",25.91 µg/mL
same,Melanin % Control,"B16 melanocytes [2]; Table 4, 40 μM",161%
same,Melanin,"B16 melanocytes [2]; Table 4, 200 μM",90.45 µg/mL
same,Melanin % Control,"B16 melanocytes [2]; Table 4, 200 μM",561%
"COc1cc2c(c(OC)c1OC)-c1c(cc3c(c1OC)OCO3)C[C@H](C)[C@](C)(O)C2 [Gomisin A, gomisin A]",increase of the amount of melanin in normal human melanocytes,[3],~40%
same,degeneration and survival of the follicle,follicle (hair bulb),limits degeneration and increases the survival of the follicle
same,pigmentation of the follicle (hair bulb),follicle (hair bulb),substantially stimulates the pigmentation of the follicle
same,MTT (%),B16 melanocytes [1]; 0.0022 mg/ml,102%
same,MTT (%),B16 melanocytes [1]; 0.0067 mg/ml,99%
same,MTT (%),B16 melanocytes [1]; 0.02 mg/ml,102%
same,"MTT test, average",B16 melanocytes [1]; gomisin A 0.002 mg/ml,2.001
same,"MTT test, single reading",B16 melanocytes [1]; gomisin A 0.002 mg/ml,2.022 and 2.112 and 2.077 and 1.920 and 1.933 and 1.942
same,viability (%),B16 melanocytes [1]; gomisin A 0.002 mg/ml,105%
same,"MTT test, average",B16 melanocytes [1]; gomisin A 0.007 mg/ml,2.081
same,"MTT test, single reading",B16 melanocytes [1]; gomisin A 0.007 mg/ml,2.046 and 2.137 and 2.227 and 2.061 and 1.966
same,viability (%),B16 melanocytes [1]; gomisin A 0.007 mg/ml,109%
same,"MTT test, average",B16 melanocytes [1]; gomisin A 0.02 mg/ml,2.128
same,"MTT test, single reading",B16 melanocytes [1]; gomisin A 0.02 mg/ml,2.227 and 2.046 and 2.241 and 1.988 and 2.085 and 2.182
same,viability (%),B16 melanocytes [1]; gomisin A 0.02 mg/ml,112%
same,"MTT test, average",B16 melanocytes [1]; gomisin A 2E−04 mg/ml,1.850
same,"MTT test, single reading",B16 melanocytes [1]; gomisin A 2E−04 mg/ml,1.878 and 1.932 and 1.972 and 1.721 and 1.807 and 1.787
same,viability (%),B16 melanocytes [1]; gomisin A 2E−04 mg/ml,97%
same,"MTT test, average",B16 melanocytes [1]; gomisin A 3E−05 mg/ml,1.835
same,"MTT test, single reading",B16 melanocytes [1]; gomisin A 3E−05 mg/ml,1.961 and 1.784 and 1.853 and 1.764 and 1.910 and 1.740
same,viability (%),B16 melanocytes [1]; gomisin A 3E−05 mg/ml,96%
same,"MTT test, average",B16 melanocytes [1]; gomisin A 7E−04 mg/ml,1.974
same,"MTT test, single reading",B16 melanocytes [1]; gomisin A 7E−04 mg/ml,1.976 and 1.996 and 2.147 and 1.844 and 1.896 and 1.987
same,viability (%),B16 melanocytes [1]; gomisin A 7E−04 mg/ml,104%
same,"MTT test, average",B16 melanocytes [1]; gomisin A 8E−05 mg/ml,1.886
same,"MTT test, single reading",B16 melanocytes [1]; gomisin A 8E−05 mg/ml,1.964 and 1.891 and 1.965 and 1.899 and 1.829 and 1.770
same,viability (%),B16 melanocytes [1]; gomisin A 8E−05 mg/ml,99%
same,"MTT test, average",B16 melanocytes [1]; gomisin A 9.1E−06 mg/ml,1.910
same,"MTT test, single reading",B16 melanocytes [1]; gomisin A 9.1E−06 mg/ml,1.837 and 1.963 and 1.930 and 1.951 and 1.879 and 1.901
same,viability (%),B16 melanocytes [1]; gomisin A 9.1E−06 mg/ml,100%
same,formation of a dense dendritic network in the melanocyte,melanocyte,stimulating
same,phagocytic activity of the keratinocytes,keratinocytes,stimulating
same,Melanin,"B16 melanocytes [2]; Table 2, plate 1, 0.0022 mg/ml",16.62 µg/mL
same,Melanin % Control,"B16 melanocytes [2]; Table 2, plate 1, 0.0022 mg/ml",121%
same,Melanin,"B16 melanocytes [2]; Table 2, plate 1, 0.0067 mg/ml",22.66 µg/mL
same,Melanin % Control,"B16 melanocytes [2]; Table 2, plate 1, 0.0067 mg/ml",164%
same,Melanin,"B16 melanocytes [2]; Table 2, plate 1, 0.02 mg/ml",27.73 µg/mL
same,Melanin % Control,"B16 melanocytes [2]; Table 2, plate 1, 0.02 mg/ml",201%
same,melanin production in the melanocyte cultures,B16 melanocytes [2],significant increase in melanin production
"COc1cc2c(c(OC)c1OC)-c1c(cc3c(c1OC)OCO3)C[C@H](C)[C@](C)(O)[C@H]2OC(=O)c1ccccc1 [Gomisin C, gomisin C]",% cell viability,B16 melanocytes [1]; 0.4 μg/ml,102%
same,% cell viability,B16 melanocytes [1]; 2 μg/ml,97%
same,% cell viability,B16 melanocytes [1]; 8 μg/ml,101%
same,"MTT test, average",B16 melanocytes [1]; gomisin C 0.0002 %,2.783
same,"MTT test, single reading",B16 melanocytes [1]; gomisin C 0.0002 %,2.786 and 2.783 and 2.780
same,viability (%),B16 melanocytes [1]; gomisin C 0.0002 %,101%
same,"MTT test, average",B16 melanocytes [1]; gomisin C 0.0008 %,2.844
same,"MTT test, single reading",B16 melanocytes [1]; gomisin C 0.0008 %,2.834 and 2.824 and 2.873
same,viability (%),B16 melanocytes [1]; gomisin C 0.0008 %,103%
same,"MTT test, average",B16 melanocytes [1]; gomisin C 0.004 %,1.899
same,"MTT test, single reading",B16 melanocytes [1]; gomisin C 0.004 %,1.871 and 1.873 and 1.954
same,viability (%),B16 melanocytes [1]; gomisin C 0.004 %,69%
same,"MTT test, average",B16 melanocytes [1]; gomisin C 0.02 %,1.136
same,"MTT test, single reading",B16 melanocytes [1]; gomisin C 0.02 %,1.208 and 1.146 and 1.205
same,viability (%),B16 melanocytes [1]; gomisin C 0.02 %,43%
same,"MTT test, average",B16 melanocytes [1]; gomisin C 1E−06 %,2.811
same,"MTT test, single reading",B16 melanocytes [1]; gomisin C 1E−06 %,2.793 and 2.813 and 2.827
same,viability (%),B16 melanocytes [1]; gomisin C 1E−06 %,102%
same,"MTT test, average",B16 melanocytes [1]; gomisin C 2.56E−07 %,2.790
same,"MTT test, single reading",B16 melanocytes [1]; gomisin C 2.56E−07 %,2.786 and 2.781 and 2.804
same,viability (%),B16 melanocytes [1]; gomisin C 2.56E−07 %,101%
same,"MTT test, average",B16 melanocytes [1]; gomisin C 3E−05 %,2.801
same,"MTT test, single reading",B16 melanocytes [1]; gomisin C 3E−05 %,2.789 and 2.795 and 2.818
same,viability (%),B16 melanocytes [1]; gomisin C 3E−05 %,101%
same,"MTT test, average",B16 melanocytes [1]; gomisin C 6E−06 %,2.792
same,"MTT test, single reading",B16 melanocytes [1]; gomisin C 6E−06 %,2.778 and 2.796 and 2.801
same,viability (%),B16 melanocytes [1]; gomisin C 6E−06 %,101%
same,Melanin,"B16 melanocytes [2]; Table 4, 0.4 μg/ml",16.66 µg/mL
same,Melanin % Control,"B16 melanocytes [2]; Table 4, 0.4 μg/ml",103%
same,Melanin,"B16 melanocytes [2]; Table 4, 2 μg/ml",17.46 µg/mL
same,Melanin % Control,"B16 melanocytes [2]; Table 4, 2 μg/ml",108%
same,Melanin,"B16 melanocytes [2]; Table 4, 8 μg/ml",19.44 µg/mL
same,Melanin % Control,"B16 melanocytes [2]; Table 4, 8 μg/ml",121%
same,melanin production in the melanocyte cultures,B16 melanocytes [2],significant increase in melanin production
